Data as given in patent US20140271573A1, “PHARMACO-CELLULAR THERAPEUTIC METHOD FOR THE TREATMENT OF MUSCULAR DYSTROPHIES” (PONTIFICIA UNIVERSIDAD CATÓLICA DE CHILE, priority 2013, published 2014).
Entries after “also recorded” stand apart in the source; their conditions may differ.

Key:
[1] = tested on: C2C12; test: Fibronectin and collagen type III protein levels induced by TGF-β1 in C2C12 cells, immunoblot; type: cell-based, mouse; details: C2C12, 10 ng/ml TGF-β1, 50 μM andrographolide, 24 hrs
[2] = tested on: mdx mice; test: Migration of DiI-labeled tendon fibroblasts injected into tibialis anterior of mdx mice; type: in vivo, mouse; details: mdx mice pre-treated 1 mg/Kg, tendon fibroblasts injected one week after treatment, analysed after one month, vs vehicle
Description: FIG. 7. Andrographolide increases cell migration through fibrosis inhibition. A) Migration of DiI-labeled tendon fibroblast cells after injection into the tibialis anterior of 7-month-old mdx mice (3 months old mdx mice exercised for four months). […] B) Quantitative analysis of the spreading DiI-labeled tendon fibroblast cells was calculated by counting DiI-labeled cells in 200 μm×200 μm squares from three non-serial transverse sections for three mice per group.
3 month old mdx mice were exercised for 4 months and treated with 1 mg/Kg andrographolide or Vehicle. One week after the treatment, mice were anesthetized with an intramuscular injection of physiologic saline (10 ml kg^−1) containing ketamine (5 mg ml^−1) and xylazine (1 mg ml^−1) and then injected with approximately 5×10^5 tendon fibroblasts into the tibialis anterior muscle via a 0.20-mm diameter needle inserted along the cranio-caudal axis of the muscle as previously described (Gargioli et al., 2008). Fibroblasts were previously labeled with 2 mMDiI according to the protocol supplied by the manufacturer (Molecular Probes). One month after the injection, mice were sacrificed for morphological analyses.

[3] = tested on: mdx mice; test: Satellite cell graft into tibialis anterior of andrographolide pre-treated mdx mice; type: in vivo, mouse
Description: FIG. 8. Muscle stem cell therapy with satellite cells is improved by reducing the muscle fibrosis by the treatment with andrographolide. A) 3 months old mdx mice were subjected to an exercise protocol for 4 months to augment the extent of muscle fibrosis. During this period one group was treated with andrographolide or vehicle (i.p. injections 3 time per week, 6 animal per group). 1 week after the last drug administration (7 month old mice), 500 freshly isolated satellite cells (SC) purified from WT mice were transplanted in both tibialis anterior muscle of each mdx mouse. 4 weeks after the engraftment the number of fibers expressing dystrophin and collagen I were determined by immunofluorescence on cryosections. The images are representative of 2 experimental group with 6 mice per group. B) Quantification of the data obtained in A showing the number of myofibers expressing dystrophin per tibialis anterior muscle in each case. C) The number of satellite cells (PAX-7 positive nuclei) were determined on isolated single muscle fibers from extensor digitoriumlongus muscle (EDL) in each case as indicative of the endogenous SC survival.
The isolation of single myofibers were prepared essentially as described (Kelly et al., 1995, Collins 2005), briefly extensor digitorium (EDL) and soleus muscles from 6 weeks old C57-BL10 mice were dissected and digested in 0.2% (w/v) collagenase type 1 (Sigma) in DMEM (Gibco) 4 mM L-glutathatmine (Sigma) and 1% penicillin and streptomycin solution (Sigma) for […] in a 37° C. water bath. After gentle muscle trituration only single and stretched myofibers were collected in DMEM. The myofibers were washed by serial transfers in 4 dishes (pre-coated with horse serum to prevent myofiber attachment) containing DMEM. The myofibers were finally collected in DMEM containing 10% FBS, 10% horse serum, 0.5% chick embryo extract and 5 ng/ml of FGF-2 (R&D) and cultured for 30 min in a 5% CO2 cell culture incubator.
Satellite cells were separated from the myofibers by physical trituration using the method of Collins et al (2005). Briefly, the isolated intact fibers were suspended in 10 ml of complete medium and triturated with a 19 G needle mounted on a 1 ml syringe. The suspension was sequentially passed through a 70 um and 40 um cell sieve (Falcon) to remove debris. The satellite cell suspension was centrifuged for 15 min at 450 RCF. The pellet was resuspended in physiologic serum (NaCl 0.9%). An aliquot was stained with Hoechst 1 ug/ml and cholera toxin sub unit B conjugated to Alexa Fluor 488 (Invitrogen) 1 ug/ml for 5 minutes, washed with PBS and incubated with trypan blue. The double stained cells that exclude the trypan blue were counted in a hemocytometer as viable cells. The concentration of cells was adjusted to 25 cell/μl. […]

[4] = tested on: mdx mice; test: Evans blue dye uptake in tibialis anterior muscle fibers of mdx mice; type: in vivo, mouse; details: exercised mdx mice, 1 mg/kg i.p. 3 times per week for 3 months
Description: FIG. 4. Andrographolide reduced skeletal muscle damage in mdx mice. To augment the extent of muscle fibrosis, 3 months old mdx mice were subjected to an exercise protocol for 3 months. Along this period one group was treated with 1 mg/kg andrographolide or vehicle (i.p. injections 3 time per week, 6 animal per group). […] B) Evans blue dye uptake in tibialis anterior muscle fibers from wild-type (WT), Vehicle-treated mdx and andrographolide-treated mdx mice. Nuclei were labeled with Hoechst. Mice were injected i.p. with 1% Evans blue dye 24 hours before muscle fixation. Bar corresponds to 200 μm. […] Values are expressed as mean±SD of three independent experiments, using eight mice for each experimental condition. (*, P<0.05 relative to WT mice; #, P<0.05 relative to Vehicle-treated mdx mice).
Control or mdx (12 weeks old) male mice of C57BL/10 ScSn strain were studied. The animals were kept at room temperature with a […] night-day cycle and fed with pellets and water ad libitum. Experimental exercise was performed for running the mice in a treadmill for three times per week, 30 minutes each time at 12 m/min during 3 or 4 months (De Luca et al., 2005; De Luca et al., 2003). […]
Animals were injected with Evans Blue dye (1% in PBS) and allowed to stay for 24 hours. […] The percentage of Evans blue dye positive fibers was manually counted in a blinded manner (Straub et al., 1997).

## C=C1CC[C@@H]2[C@](C)(CO)[C@H](O)CC[C@@]2(C)[C@@H]1C/C=C1/C(=O)OC[C@H]1O [andrographolide]
[1]
  collagen type III protein levels induced by TGF-β1 in vitro: decreased
  fibronectin protein levels induced by TGF-β1 in vitro: decreased
[2]
  DiI-labeled cell distribution in muscle: distributed more homogenously; also recorded: more homogenous
[3]; mdx mice pre-treated with andrographolide, 500 WT satellite cells grafted per tibialis anterior, one month after transplantation
  increase in number of dystrophin positive fibers compared to controls: 3 times
[3]; mdx mice pre-treated with andrographolide, one month after transplantation, immunofluorescence
  collagen-I content after satellite cell transplantation: clear reduction
[3]; same transplanted mdx mice, PAX-7 positive nuclei, endogenous satellite cells
  change in number of satellite cells present on isolated EDL myofibers: no changes
[3]; same transplanted mdx mice, no change between treated and untreated
  mean satellite cells per EDL myofiber: 12.5 satellite cells per EDL myofiber
[4]
  Evans blue dye uptake in muscle fibers: lower Evans blue dye uptake
